Experimental data as given in the supplement of paper PMC7661543.
± gives the standard deviation of the averaged measurements.

system: HCC-38; experiment: relative cell number vs DMSO control (72 h) (% of DMSO); higher = less growth inhibition (more cells); conditions: sgRNA knockout: sgNT, 10 nM
Protocol: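 QMAP-Seq: a pool of 5 breast cancer cell lines (ZR-75-1, SKBR3, HCC-38, MDA-MB-231, BT-20), each carrying 12 doxycycline-inducible Cas9 sgRNA perturbations (11 knockouts plus non-targeting sgNT), was treated with compounds for 72 h at four 10-fold doses (10 nM-10 uM or 1 nM-1 uM range). Barcodes were amplified and sequenced, and cell number was interpolated from 293T spike-in standard curves. The result is expressed as % of the median of DMSO wells. Two biological replicates.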

Row | SMILES | relative cell number
1 | C=CC(=O)Nc1cc2c(Nc3ccc(F)c(Cl)c3)ncnc2cc1OCCCN1CCOCC1 [Canertinib] | 97 ± 19

same assay, conditions: sgRNA knockout: sgNT, 100 nM

Row | SMILES | relative cell number
2 | FC(F)c1nc2ccccc2n1-c1nc(N2CCOCC2)nc(N2CCOCC2)n1 [ZSTK474] | 94.3 ± 9.2
3 | Cc1nc(Nc2ncc(C(=O)Nc3c(C)cccc3Cl)s2)cc(N2CCN(CCO)CC2)n1 [Dasatinib] | 66.2 ± 9.8
4 | CN/C(=N\CCSCc1nc[nH]c1C)NC#N [Cimetidine] | 97.2 ± 9.8
5 | CC(C)C[C@H](NC(=O)[C@H](Cc1ccccc1)NC(=O)c1cnccn1)B(O)O [Bortezomib] | 4.58 ± 0.053
6 | COc1cc(CCc2cc(NC(=O)c3ccc(N4CC(C)NC(C)C4)cc3)n[nH]2)cc(OC)c1 (configuration not stated) [AZD4547] | 64.5 ± 6.9
7 | CC(C)(C)c1ccc(S(=O)(=O)NCc2ccc(C(=O)Nc3cccnc3)cc2)cc1 [STF31] | 82.5 ± 12
8 | CCC[C@H](NC(=O)/C(C#N)=C/c1cccc(Br)n1)c1ccccc1 [WP1130] | 103 ± 6.8
9 | O=[N+]([O-])c1ccc(O)c2ncccc12 [Nitroxoline] | 88.83 ± 0.36
10 | O=C1c2c(O)ccc(O)c2C(=O)c2c(NCCNCCO)ccc(NCCNCCO)c21 [Mitoxantrone] | 30.46 ± 0.2
11 | N[C@@H](CC(=O)N1CCn2c(nnc2C(F)(F)F)C1)Cc1cc(F)c(F)cc1F [Sitagliptin] | 99.2 ± 12
12 | CC(C)[C@H](O)C(=O)N[C@@H](C)C(=O)N[C@@H]1C(=O)N(C)CCc2ccccc21 [Semagacestat] | 107 ± 4.2
13 | C=C1C(=O)O[C@H]2[C@H]1CC/C(C)=C/CC[C@@]1(C)O[C@@H]21 [Parthenolide] | 92.6 ± 2
14 | COc1cc(/C=C/C(=O)CC(=O)/C=C/c2ccc(O)c(OC)c2)ccc1O [Curcumin] | 97.5 ± 7
15 | Nc1nc(OCc2cc(Br)cs2)c2[nH]cnc2n1 [Lomeguatrib] | 88.5 ± 10
16 | C=C(c1ccc(C(=O)O)cc1)c1cc2c(cc1C)C(C)(C)CCC2(C)C [Bexarotene] | 90.4 ± 9
17 | Clc1ccc(C2(c3ccc(-c4cn[nH]c4)cc3)CCNCC2)cc1 [AT7867] | 64.1 ± 14
18 | CS(=O)(=O)c1cccc(CNc2nc(Nc3ccc4c(c3)CCC(=O)N4)ncc2C(F)(F)F)c1 | 119 ± 18
19 | N#Cc1ccc(COC[C@H]2O[C@@H](n3c(NCc4ccc(Cl)c(Cl)c4)nc4c(N)ncnc43)[C@H](O)[C@@H]2O)cc1 | 99.2 ± 8.1
20 | CN(Cc1cnc2nc(N)nc(N)c2n1)c1ccc(C(=O)N[C@@H](CCC(=O)O)C(=O)O)cc1 [Methotrexate] | 56 ± 1.1
21 | CC(C)CC(=O)Nc1n[nH]c2c1CN(C(=O)C1CCN(C)CC1)C2(C)C | 76.6 ± 10
22 | CCCc1nn(C)c2c(=O)[nH]c(-c3cc(S(=O)(=O)N4CCN(C)CC4)ccc3OCC)nc12 [Sildenafil] | 92.7 ± 4.1
23 | O=C1CCC(N2C(=O)c3ccccc3C2=O)C(=O)N1 (configuration not stated) [Thalidomide] | 95.3 ± 1.2
24 | CC(C)(C(=O)NCC(F)(F)C(F)(F)F)C(=O)N[C@@H]1C(=O)Nc2ccccc2-c2ccccc21 | 99.1 ± 4.5
25 | CC[C@@]1(O)C(=O)OCc2c1cc1n(c2=O)Cc2cc3c(CN(C)C)c(O)ccc3nc2-1 [Topotecan] | 20.9 ± 0.31
26 | C=CC(=O)Nc1cc2c(Nc3ccc(F)c(Cl)c3)ncnc2cc1OCCCN1CCOCC1 [Canertinib] | 110 ± 9.9

same assay, conditions: sgRNA knockout: sgNT, 1000 nM

Row | SMILES | relative cell number
27 | FC(F)c1nc2ccccc2n1-c1nc(N2CCOCC2)nc(N2CCOCC2)n1 [ZSTK474] | 83.4 ± 7.9
28 | Cc1nc(Nc2ncc(C(=O)Nc3c(C)cccc3Cl)s2)cc(N2CCN(CCO)CC2)n1 [Dasatinib] | 65.7 ± 4.4
29 | CN/C(=N\CCSCc1nc[nH]c1C)NC#N [Cimetidine] | 88.8 ± 11
30 | CC(C)C[C@H](NC(=O)[C@H](Cc1ccccc1)NC(=O)c1cnccn1)B(O)O [Bortezomib] | 7.2 ± 1.2
31 | COc1cc(CCc2cc(NC(=O)c3ccc(N4CC(C)NC(C)C4)cc3)n[nH]2)cc(OC)c1 (configuration not stated) [AZD4547] | 54.6 ± 1.7
32 | CC(C)(C)c1ccc(S(=O)(=O)NCc2ccc(C(=O)Nc3cccnc3)cc2)cc1 [STF31] | 93.2 ± 7.9
33 | CCC[C@H](NC(=O)/C(C#N)=C/c1cccc(Br)n1)c1ccccc1 [WP1130] | 83.8 ± 11
34 | O=[N+]([O-])c1ccc(O)c2ncccc12 [Nitroxoline] | 107 ± 14
35 | O=C1c2c(O)ccc(O)c2C(=O)c2c(NCCNCCO)ccc(NCCNCCO)c21 [Mitoxantrone] | 7.76 ± 0.68
36 | N[C@@H](CC(=O)N1CCn2c(nnc2C(F)(F)F)C1)Cc1cc(F)c(F)cc1F [Sitagliptin] | 106 ± 5
37 | CC(C)[C@H](O)C(=O)N[C@@H](C)C(=O)N[C@@H]1C(=O)N(C)CCc2ccccc21 [Semagacestat] | 118 ± 3.2
38 | C=C1C(=O)O[C@H]2[C@H]1CC/C(C)=C/CC[C@@]1(C)O[C@@H]21 [Parthenolide] | 98.6 ± 16
39 | COc1cc(/C=C/C(=O)CC(=O)/C=C/c2ccc(O)c(OC)c2)ccc1O [Curcumin] | 95.5 ± 7.2
40 | Nc1nc(OCc2cc(Br)cs2)c2[nH]cnc2n1 [Lomeguatrib] | 89.6 ± 22
41 | C=C(c1ccc(C(=O)O)cc1)c1cc2c(cc1C)C(C)(C)CCC2(C)C [Bexarotene] | 94.9 ± 8
42 | Clc1ccc(C2(c3ccc(-c4cn[nH]c4)cc3)CCNCC2)cc1 [AT7867] | 45.4 ± 2.5
43 | CS(=O)(=O)c1cccc(CNc2nc(Nc3ccc4c(c3)CCC(=O)N4)ncc2C(F)(F)F)c1 | 86.8 ± 25
44 | N#Cc1ccc(COC[C@H]2O[C@@H](n3c(NCc4ccc(Cl)c(Cl)c4)nc4c(N)ncnc43)[C@H](O)[C@@H]2O)cc1 | 99.1 ± 19
45 | CN(Cc1cnc2nc(N)nc(N)c2n1)c1ccc(C(=O)N[C@@H](CCC(=O)O)C(=O)O)cc1 [Methotrexate] | 41.2 ± 0.74
46 | CC(C)CC(=O)Nc1n[nH]c2c1CN(C(=O)C1CCN(C)CC1)C2(C)C | 42.4 ± 2
47 | CCCc1nn(C)c2c(=O)[nH]c(-c3cc(S(=O)(=O)N4CCN(C)CC4)ccc3OCC)nc12 [Sildenafil] | 103 ± 9.7
48 | O=C1CCC(N2C(=O)c3ccccc3C2=O)C(=O)N1 (configuration not stated) [Thalidomide] | 117 ± 4.4
49 | CC(C)(C(=O)NCC(F)(F)C(F)(F)F)C(=O)N[C@@H]1C(=O)Nc2ccccc2-c2ccccc21 | 107 ± 3.9
50 | CC[C@@]1(O)C(=O)OCc2c1cc1n(c2=O)Cc2cc3c(CN(C)C)c(O)ccc3nc2-1 [Topotecan] | 12.1 ± 1.6
51 | C=CC(=O)Nc1cc2c(Nc3ccc(F)c(Cl)c3)ncnc2cc1OCCCN1CCOCC1 [Canertinib] | 87 ± 12

same assay, conditions: sgRNA knockout: sgNT, 10000 nM

Row | SMILES | relative cell number
52 | FC(F)c1nc2ccccc2n1-c1nc(N2CCOCC2)nc(N2CCOCC2)n1 [ZSTK474] | 56.2 ± 1.8
53 | Cc1nc(Nc2ncc(C(=O)Nc3c(C)cccc3Cl)s2)cc(N2CCN(CCO)CC2)n1 [Dasatinib] | 32.9 ± 2.9
54 | CN/C(=N\CCSCc1nc[nH]c1C)NC#N [Cimetidine] | 101 ± 7.5
55 | COc1cc(CCc2cc(NC(=O)c3ccc(N4CC(C)NC(C)C4)cc3)n[nH]2)cc(OC)c1 (configuration not stated) [AZD4547] | 46.8 ± 1.9
56 | CC(C)(C)c1ccc(S(=O)(=O)NCc2ccc(C(=O)Nc3cccnc3)cc2)cc1 [STF31] | 76.6 ± 10
57 | CCC[C@H](NC(=O)/C(C#N)=C/c1cccc(Br)n1)c1ccccc1 [WP1130] | 6.78 ± 2
58 | O=[N+]([O-])c1ccc(O)c2ncccc12 [Nitroxoline] | 45.9 ± 0.87
59 | O=C1c2c(O)ccc(O)c2C(=O)c2c(NCCNCCO)ccc(NCCNCCO)c21 [Mitoxantrone] | 7.21 ± 2.4
60 | N[C@@H](CC(=O)N1CCn2c(nnc2C(F)(F)F)C1)Cc1cc(F)c(F)cc1F [Sitagliptin] | 92.2 ± 1.9
61 | CC(C)[C@H](O)C(=O)N[C@@H](C)C(=O)N[C@@H]1C(=O)N(C)CCc2ccccc21 [Semagacestat] | 84.4 ± 1.2
62 | C=C1C(=O)O[C@H]2[C@H]1CC/C(C)=C/CC[C@@]1(C)O[C@@H]21 [Parthenolide] | 113 ± 13
